Laboratory results as given in patent publication US8420776B2, “Ube2G2 binding domain in the ubiquitin ligase gp78 and methods of use thereof” (The United States of America, as Represented by the …, priority 2004, dated 2013).
“Also recorded” adds a separate entry of the source. Ends that are not written are not given here. Peptide text beside a SMILES is read from it. * marks the point of attachment. Cbz = O=C(OCc1ccccc1)*

What was measured:
gp78 = gp78 level in transfected cells by immunoblotting; assay type: cell-based
Description: Transfections of HT1080, NIH 3T3 and HEK 293T cells were carried out ˜24 hr after plating using Polyfect (Qiagen, Valencia, Calif.) and cells harvested after ˜48 hr. J558 cells were transfected by electroporation using Bio-rad GENE pulser II at settings of 250 v, 950uF. Vector without insert was used to equalize total plasmid. In most experiments 0.15 μg of pEGFP-C1 served as an internal control. For experiments not involving immunoprecipitation, 6×10^5 cells were plated in 6 well plates and cell lysis was with Mammalian Protein Extraction Reagent (Pierce). For immunoprecipitation, 2.4×10^6 cells were seeded in 100 mm dishes and cells were lysed in RIPA buffer (1×PBS, 1% Nonidet P40. 0.5% sodium deoxycholate, 0.1% SDS). Lysis buffers were supplemented with Protease Inhibitor Cocktail (Sigma) and 10 mM iodoacetamide. Supernatants were analyzed after a 10,000×g centrifugation using standard techniques for immunoprecipitation, SDS-PAGE, immunoblotting and ECL. Treatment of cells with MG132 (Sigma) was at 50 μM for eight hr. Cycloheximnide was used at 50 μg/ml. […]
gp78 is degraded in a proteasome-dependent manner, and deletion of the entire cytoplasmic domain results in its stabilization. […] To determine the significance of the RING finger, Cue domain and Ube2G2 binding site on gp78 stability, mutations of each were evaluated within full-length gp78. […]

ERAD substrate CD3-δ = assay: CD3-δ level in co-transfected cells by immunoblotting; assay type: cell-based; conditions: for effect on CD3-δ level (stabilization): co-transfection with CD3-δ, immunoblot
Description: (§1) Transfections of HT1080, NIH 3T3 and HEK 293T cells were carried out ˜24 hr after plating using Polyfect (Qiagen, Valencia, Calif.) and cells harvested after ˜48 hr. J558 cells were transfected by electroporation using Bio-rad GENE pulser II at settings of 250 v, 950uF. Vector without insert was used to equalize total plasmid. In most experiments 0.15 μg of pEGFP-C1 served as an internal control. For experiments not involving immunoprecipitation, 6×10^5 cells were plated in 6 well plates and cell lysis was with Mammalian Protein Extraction Reagent (Pierce). For immunoprecipitation, 2.4×10^6 cells were seeded in 100 mm dishes and cells were lysed in RIPA buffer (1×PBS, 1% Nonidet P40. 0.5% sodium deoxycholate, 0.1% SDS). Lysis buffers were supplemented with Protease Inhibitor Cocktail (Sigma) and 10 mM iodoacetamide. Supernatants were analyzed after a 10,000×g centrifugation using standard techniques for immunoprecipitation, SDS-PAGE, immunoblotting and ECL. Treatment of cells with MG132 (Sigma) was at 50 μM for eight hr. Cycloheximnide was used at 50 μg/ml. All cells were collected at the end of the six hr chase.
FIG. 7 depicts the stabilization of CD3-δ protein in cells transfected with the G2BD, but not with the G2BD with amino acids 579-584 (of SEQ ID NO:2) mutated. HEK 293T cells were transfected with the ERAD substrate CD3-δ along with the indicated GFP fusions of gp78. The left and right sides are two separate experiments.
(§2) To test this, GFP fusions of either a minimal E2 binding domain (GFP-574-611) or a more extended region that includes the C-terminus of gp78 (GFP-574-643) were evaluated (FIG. 21A). […] To assess this further, the C-terminal region of gp78 was fused to the eight amino acid Flag tag. […] Mdm2 is a RING finger E3 for both itself and p53 that is neither an ERAD substrate nor known to utilize Ube2G2 as an E2. […] To establish with certainty that the effect observed with expression of the Ube2G2 binding site is a consequence of binding endogenous E2, and not due to other unanticipated effects, cells were co-transfected with increasing amounts of Ube2G2 (FIG. 21C, lanes 3 and 4). […] These findings clearly establish that the isolated E2 binding site has the potential to markedly alter ERAD of CD3-δ. To ensure the effect observed was not peculiar to one substrate, TCR-α was evaluated (FIG. 21D).

ERAD substrate TCR-α = assay: TCR-α level in co-transfected cells; assay type: cell-based; conditions: co-transfection with TCR-α
Description: as §1
FIG. 9 depicts the stabilization of endogenous TCRα by the G2BD. TCR-α is a subunit of the T cell antigent receptor and an ERAD substrate. TCR-α was stabilized by the region implicated in Ube2G2 binding.
as §2

Mdm2 = Mdm2 level in co-transfected cells; assay type: cell-based; conditions: cells transfected with CD3-δ and Mdm2
Description: as §1
To test this, GFP fusions of either a minimal E2 binding domain (GFP-574-611) or a more extended region that includes the C-terminus of gp78 (GFP-574-643) were evaluated (FIG. 21A). […] To ensure the effect observed was not peculiar to one substrate, TCR-α was evaluated (FIG. 21D).

[1] = target: T1, lysine 48-linked (K48) tetra-ubiquitin (Homo sapiens, UniProt P0CG47); assay: Tetra-ubiquitin binding to GST fusions; conditions: anti-ubiquitin immunoblot
T1 construct: 1 μg K48 tetra-ubiquitin produced as described (Piotrowski et al., 1997); made in house
Description: GST fusions were purified from E. Coli. Binding was carried out using equi-molar amount of fusion proteins measured by Commassie blue staining. Generally, 20 picomoles/sample were used. In vitro translated E2 was generated by coupled transcription and translation using 35S methionine in either wheat germ or rabbit reticulocyte lysate. Binding assays using in vitro translated E2 was carried out by incubating GST protein pre-bound to Glutathione-sepharose 4B with […] of ^35S-methionine labeled E2 in binding buffer (25 mM Tris-HCl, pH 7.4; 50 mM NaCl, 5 mM DTT; and 0.5% NP-40) overnight at 4° C. Beads were washed with binding buffer and resolved by SDS-PAGE under reducing conditions. Analysis was by Storm PhosphoImager (Applied Biosystems, Foster City, Calif.). Direct binding assays used wild type His6-MmUbc7 (His6-Ube2G2) and Glutathione-sepharose bound GST fusions. Beadbound GST protein was incubated with 100 ng purified His6-MmUbc7 in binding buffer and washed and eluted as above. After transfer to Hybond-P (Amersham Biosciences) binding was assessed with anti-His6 followed by Enhanced Chemiluminescence ECL; Pierce). Ubiquitin binding studies were performed with binding and washing as above using 1 μg K48 tetra-ubiquitin produced as described (Piotrowski et al., 1997). Detection was by anti-ubiquitin immunoblotting.

Myc-Ube2G2 = target: T2, Myc-Ube2G2 (Mus musculus, UniProt P60605); assay: Co-immunoprecipitation with co-expressed Myc-Ube2G2 in cells; assay type: cell-based; conditions: anti-Myc IP, anti-GFP IB
T2 construct: expressed in transfected cells; host or cells: HEK 293T
T2 sequence (P60605 1-165): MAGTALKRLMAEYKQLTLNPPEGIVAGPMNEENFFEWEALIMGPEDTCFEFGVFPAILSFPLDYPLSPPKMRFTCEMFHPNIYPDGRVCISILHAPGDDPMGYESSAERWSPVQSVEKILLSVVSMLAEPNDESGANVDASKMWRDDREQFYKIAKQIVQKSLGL
Description: as §1
FIG. 5 depicts the results of immunoprecipitation of Ube2G2 (MmUbc7) from HEK 293T cells co-transfected with a plasmid encoding myc-tagged MmUbc7/Ube2G2 together with s plasmid encoding various forms of gp78. […]

Ube2G2/MmUbc7 = target: T3, Ube2G2/MmUbc7 (Mus musculus, UniProt P60605); assay: GST pull-down binding of in vitro translated 35S-Met Ube2G2/MmUbc7; set-up: species or system human; conditions: GST fusion pull-down; 35S-Met labeled E2
T3 construct: made in house; host or cells: coupled in vitro transcription/translation in rabbit reticulocyte lysate or wheat germ
T3 sequence (P60605 1-165): T2 sequence (P60605 1-165)
Description: GST fusions were purified from E. Coli. Binding was carried out using equi-molar amount of fusion proteins measured by Commassie blue staining. Generally, 20 picomoles/sample were used. In vitro translated E2 was generated by coupled transcription and translation using 35S methionine in either wheat germ or rabbit reticulocyte lysate. […] Beads were washed with binding buffer and resolved by SDS-PAGE under reducing conditions. Analysis was by Storm PhosphoImager (Applied Biosystems, Foster City, Calif.). Direct binding assays used wild type His6-MmUbc7 (His6-Ube2G2) and Glutathione-sepharose bound GST fusions. Beadbound GST protein was incubated with 100 ng purified His6-MmUbc7 in binding buffer and washed and eluted as above. After transfer to Hybond-P (Amersham Biosciences) binding was assessed with anti-His6 followed by Enhanced Chemiluminescence ECL; Pierce).
The E2 enzymes were in vitro translated using wheat germ.
GST fusion proteins encoding the regions indicated in FIGS. 3A-3C were evaluated for the ability to bind to Ube2G2/MmUbc7 that had been in vitro transcribed and translated in rabbit reticulocyte lysate. gp78C represents the entire C-terminal cytoplasmic domain of gp78 (amino acid residues 309-643 of SEQ ID NO:2).

For `CC(C)C[C@@H](C=O)NC(=O)[C@H](CC(C)C)NC(=O)[C@H](CC(C)C)NC(=O)OCc1ccccc1` [MG132, reference compound] (Cbz-Leu-Leu-Leu-aldehyde), the “effect of proteasome inhibitor on gp78 level” value (gp78) was “stabilized wild type gp78”, the “reversal of G2BD-induced CD3-δ stabilization by co-transfected Ube2G2” value (ERAD substrate CD3-δ; cells expressing Flag-tagged gp78 574-643, 2 or 4 μg Ube2G2 plasmid) was “blocked the effect of transfected Ube2G2” and the “effect on TCR-α level (stabilization)” value (ERAD substrate TCR-α) was “prevented degradation of TCR-α”. For the same molecule, the “effect on Mdm2 level (stabilization)” value (Mdm2) was “led to Mdm2 stabilization”.
“UBA-Cbl-b: GST fusion of the UBA of the RING finger E3 Cbl-b (NVDAKIAKLMGEGYAFEEVKRALEIAQNNVEVARSILREF; also: GST fusion partner, not in chain) [reference compound]” was tested, and the “binding of K48 tetra-ubiquitin” value [1] was “binds”.
“579-600: GFP fusion of amino acids 579-600 of SEQ ID NO:2 (QRMLVQRKDELLQQARKRFLNK; listed as Homo sapiens)” was tested, and the “binding of GFP fusion to co-expressed Myc-Ube2G2 in cells” value (Myc-Ube2G2) was “sufficient to bind Ube2G2 in cells”.
“GFP-574-611E2-m2: GFP fusion of gp78 574-611 with the E2 binding site mutation of residues 579 to 584” was tested, and the “effect on CD3-δ level (stabilization)” value (ERAD substrate CD3-δ) was “totally prevented this stabilization”, the “effect on CD3-δ level (stabilization)” value (ERAD substrate CD3-δ; listed as G2BD with amino acids 579-584 (of SEQ ID NO:2) mutated) was “loss of this effect” and the “effect on TCR-α level (stabilization)” value (ERAD substrate TCR-α) was “did not”.
“574-608: GST fusion of amino acids 574-608 of gp78 (SEQ ID NO:2) (SADERQRMLVQRKDELLQQARKRFLNKSSEDDAAS; listed as Homo sapiens)” was tested, and the “binding to in vitro translated Ube2G2/MmUbc7” value (Ube2G2/MmUbc7) was “sufficient for binding to Ube2G2; also recorded: bound in vitro translated Ube2G2 comparably to the complete gp78 C-terminal tail”.
